Measurements published in patent US12065436B2, “Cardiac sarcomere inhibitors” (Cytokinetics, Inc., priority 2018, dated 2024).

Target: bovine cardiac myofibrils (full-length cardiac myosin ATPase in the native sarcomere) (Bos taurus (Bovine), UniProt Q9BE39)
Assay: Skinned bovine cardiac myofibril ATPase assay (PK/LDH-coupled)
Format: biochemical
Details: Ca2+ activating to 75% of maximal rate; for CDMF75 IC15: concentration giving 15% inhibition; for IC50: read-out: CDMF75 IC50
Protocol: To evaluate the effect of compounds on the ATPase activity of full-length cardiac myosin in the context of the native sarcomere, skinned myofibril assays were performed. Bovine cardiac myofibrils were obtained by homogenizing bovine cardiac left ventricular tissue in the presence of a detergent such as triton X-100. Such treatment removes membranes and a majority of the soluble cytoplasmic proteins but leaves intact the cardiac sarcomeric acto-myosin apparatus. Myofibril preparations retain the ability to hydrolyze ATP in an Ca^2+ regulated manner. ATPase activities of such myofibril preparations in the presence and absence of compounds were assayed at Ca^2+ concentrations activating to a defined fraction of the maximal rate (i.e., 25%, 75%). Small molecule agents were assessed for their ability to inhibit the steady-state ATPase activity of bovine cardiac myofibrils using pyruvate kinase and lactate dehydrogenase (PK/LDH)-coupled enzyme system. This assay regenerates myosin-produced ADP into ATP by oxidizing NADH, producing an absorbance change at 340 nm. Prior to testing small molecule agents, the bovine cardiac myofibrils were assessed for their calcium responsiveness and the calcium concentration that achieves either a 50% (pCa50) or 75% (pCa75) activation of the myofibril system was chosen as the final condition for assessing the inhibitory activity of the small molecule agents. All enzymatic activity was measured in a buffered solution containing 12 mM PIPES (piperazine-N,N′-bis(2-ethanesulfonic acid), 2 mM magnesium chloride at pH 6.8 (PM 12 buffer). Final assay conditions were 1 mg/mL of bovine cardiac myofibrils, 4 U/mL pyruvate kinase, 6 U/mL lactate dehydrogenase, 50 μM ATP, 0.1 mg/mL BSA (bovine serum albumin), 10 ppm antifoam, 1 mM DTT, 0.5 mM NADH, 1.5 mM PEP, 0.6 mM EGTA, and an amount of CaCl2) sufficient to achieve either 50% or 75% activation of the myofibril ATPase activity.

Sequence of bovine cardiac myofibrils (full-length cardiac myosin ATPase in the native sarcomere) (Q9BE39 whole entry): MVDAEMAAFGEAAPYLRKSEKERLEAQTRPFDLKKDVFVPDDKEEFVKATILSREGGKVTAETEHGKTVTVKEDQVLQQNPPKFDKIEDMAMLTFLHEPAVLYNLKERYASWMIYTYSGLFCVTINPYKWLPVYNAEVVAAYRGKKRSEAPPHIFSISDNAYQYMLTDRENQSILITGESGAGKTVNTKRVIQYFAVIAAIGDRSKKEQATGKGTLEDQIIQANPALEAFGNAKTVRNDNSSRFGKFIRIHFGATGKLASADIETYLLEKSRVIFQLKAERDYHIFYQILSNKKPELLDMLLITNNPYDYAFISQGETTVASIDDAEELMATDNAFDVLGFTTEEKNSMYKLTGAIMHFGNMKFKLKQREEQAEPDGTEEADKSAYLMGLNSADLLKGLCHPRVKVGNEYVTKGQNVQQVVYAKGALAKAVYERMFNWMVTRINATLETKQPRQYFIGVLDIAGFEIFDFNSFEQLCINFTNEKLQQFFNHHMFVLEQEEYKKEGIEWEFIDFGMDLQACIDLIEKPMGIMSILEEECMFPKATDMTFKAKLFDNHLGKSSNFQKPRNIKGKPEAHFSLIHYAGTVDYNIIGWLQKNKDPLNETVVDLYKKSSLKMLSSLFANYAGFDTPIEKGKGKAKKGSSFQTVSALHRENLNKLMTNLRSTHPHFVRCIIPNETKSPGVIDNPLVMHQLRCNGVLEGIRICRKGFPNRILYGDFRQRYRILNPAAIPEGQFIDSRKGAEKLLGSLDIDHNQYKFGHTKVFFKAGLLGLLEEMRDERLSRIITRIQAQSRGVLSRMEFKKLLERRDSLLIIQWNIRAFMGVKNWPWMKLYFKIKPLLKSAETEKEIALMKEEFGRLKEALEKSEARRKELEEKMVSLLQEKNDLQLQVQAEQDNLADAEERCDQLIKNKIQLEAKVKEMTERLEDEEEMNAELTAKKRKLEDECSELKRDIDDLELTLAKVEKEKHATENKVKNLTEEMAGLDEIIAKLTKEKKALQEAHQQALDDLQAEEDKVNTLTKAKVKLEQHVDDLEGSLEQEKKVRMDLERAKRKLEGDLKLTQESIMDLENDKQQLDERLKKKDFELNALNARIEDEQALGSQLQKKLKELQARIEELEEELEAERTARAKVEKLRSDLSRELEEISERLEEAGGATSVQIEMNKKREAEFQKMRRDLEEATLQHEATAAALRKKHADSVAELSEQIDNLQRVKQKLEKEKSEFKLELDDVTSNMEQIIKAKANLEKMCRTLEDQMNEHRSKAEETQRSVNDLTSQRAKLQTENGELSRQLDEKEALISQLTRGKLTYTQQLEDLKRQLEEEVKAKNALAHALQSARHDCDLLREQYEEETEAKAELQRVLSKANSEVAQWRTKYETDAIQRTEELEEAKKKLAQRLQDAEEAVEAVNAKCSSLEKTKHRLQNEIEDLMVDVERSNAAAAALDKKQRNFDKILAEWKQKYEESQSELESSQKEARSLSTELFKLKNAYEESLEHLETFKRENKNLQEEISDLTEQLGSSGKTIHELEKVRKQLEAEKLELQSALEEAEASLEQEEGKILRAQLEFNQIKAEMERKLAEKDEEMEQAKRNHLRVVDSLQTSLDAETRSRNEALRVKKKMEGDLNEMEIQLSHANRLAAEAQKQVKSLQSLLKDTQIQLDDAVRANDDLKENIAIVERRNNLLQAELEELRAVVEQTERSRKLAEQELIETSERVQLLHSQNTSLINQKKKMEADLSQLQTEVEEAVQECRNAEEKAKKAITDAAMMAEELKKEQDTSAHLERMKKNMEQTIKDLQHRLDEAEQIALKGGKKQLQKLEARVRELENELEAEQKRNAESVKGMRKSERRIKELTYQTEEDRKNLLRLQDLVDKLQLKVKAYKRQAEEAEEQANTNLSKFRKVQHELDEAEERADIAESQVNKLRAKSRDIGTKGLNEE
Sequence of bovine cardiac myofibrils (full-length cardiac myosin ATPase in the native sarcomere) (P85100 whole entry partner): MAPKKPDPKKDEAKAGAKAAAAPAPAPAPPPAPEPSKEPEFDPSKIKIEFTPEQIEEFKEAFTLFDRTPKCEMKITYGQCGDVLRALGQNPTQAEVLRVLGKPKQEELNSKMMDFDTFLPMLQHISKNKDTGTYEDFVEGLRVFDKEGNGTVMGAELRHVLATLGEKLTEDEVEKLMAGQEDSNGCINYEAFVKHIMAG
Sequence of bovine cardiac myofibrils (full-length cardiac myosin ATPase in the native sarcomere) (Q3SZE5 whole entry partner): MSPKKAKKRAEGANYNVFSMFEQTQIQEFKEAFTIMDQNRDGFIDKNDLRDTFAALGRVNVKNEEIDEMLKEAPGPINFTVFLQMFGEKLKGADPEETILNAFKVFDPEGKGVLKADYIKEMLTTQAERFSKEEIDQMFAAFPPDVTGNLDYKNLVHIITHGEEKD

With `Cc1nc(-c2ccc3c(c2)CCC3NC(=O)c2ccnc(N)c2)no1` (stereo not drawn) [Compound 33, 2-amino-N-(5-(5-methyl-1,2,4-oxadiazol-3-yl)-2,3-dihydro-1H-inden-1-yl)isonicotinamide] the “CDMF75 IC15” value was 1.3 µM and the IC50 was 4.3 µM.
For `Cc1cc(C(=O)NC2CCc3cc(-c4noc(C)n4)ccc32)on1` (stereo not drawn) [Compound 34, 3-methyl-N-(5-(5-methyl-1,2,4-oxadiazol-3-yl)-2,3-dihydro-1H-inden-1-yl)isoxazole-5-carboxamide], the “CDMF75 IC15” value was 2.1 µM and the IC50 was 8.1 µM.
With `Cn1nccc1C(=O)NC1CCc2cc(-c3noc(C(F)F)n3)ccc21` (stereo not drawn) [Compound 35, N-(5-(5-(difluoromethyl)-1,2,4-oxadiazol-3-yl)-2,3-dihydro-1H-inden-1-yl)-1-methyl-1H-pyrazole-5-carboxamide] the “CDMF75 IC15” value was 0.5 µM and the IC50 was 1.6 µM.
In the case of `O=C(NC1CCc2cc(-c3noc(C(F)F)n3)ccc21)c1cnn2c1CCC2` (stereo not drawn) [Compound 36, N-(5-(5-(difluoromethyl)-1,2,4-oxadiazol-3-yl)-2,3-dihydro-1H-inden-1-yl)-5,6-dihydro-4H-pyrrolo[1,2-b]pyrazole-3-carboxamide], the “CDMF75 IC15” value is reported as 0.9 µM and the IC50 is reported as 4.7 µM.
`Cc1cc(C(=O)NC2CCc3cc(-c4noc(C(F)F)n4)ccc32)cnn1` (stereo not drawn) [Compound 37, N-(5-(5-(difluoromethyl)-1,2,4-oxadiazol-3-yl)-2,3-dihydro-1H-inden-1-yl)-6-methylpyridazine-4-carboxamide] was tested, and the “CDMF75 IC15” value was 2.1 µM and the IC50 was 9.7 µM.
With `Cc1nccnc1C(=O)NC1CCc2cc(-c3noc(C(F)F)n3)ccc21` (stereo not drawn) [Compound 38, N-(5-(5-(difluoromethyl)-1,2,4-oxadiazol-3-yl)-2,3-dihydro-1H-inden-1-yl)-3-methylpyrazine-2-carboxamide] the “CDMF75 IC15” value was 2.2 µM and the IC50 was 9.5 µM.
`Cc1ncccc1C(=O)NC1CCc2cc(-c3noc(C(F)F)n3)ccc21` (stereo not drawn) [Compound 39, N-(5-(5-(difluoromethyl)-1,2,4-oxadiazol-3-yl)-2,3-dihydro-1H-inden-1-yl)-2-methylnicotinamide] was tested, and the “CDMF75 IC15” value was 31.0 µM and the IC50 was over 39.2 µM.
With `Cn1cc(C(=O)NC2CCc3cc(-c4noc(C(F)F)n4)ccc32)c(C(F)(F)F)n1` (stereo not drawn) [Compound 40, N-(5-(5-(difluoromethyl)-1,2,4-oxadiazol-3-yl)-2,3-dihydro-1H-inden-1-yl)-1-methyl-3-(trifluoromethyl)-1H-pyrazole-4-carboxamide] the “CDMF75 IC15” value was 3.9 µM and the IC50 was 16.2 µM.
For `Cc1cnc(C(=O)NC2CCc3cc(-c4noc(C(F)F)n4)ccc32)c(C)n1` (stereo not drawn) [Compound 41, N-(5-(5-(difluoromethyl)-1,2,4-oxadiazol-3-yl)-2,3-dihydro-1H-inden-1-yl)-3,5-dimethylpyrazine-2-carboxamide], the “CDMF75 IC15” value was 6.6 µM and the IC50 was over 39.2 µM.
`Cc1nc(-c2cnc3c(c2)CCC3NC(=O)c2ccccc2)no1` (stereo not drawn) [Compound 42, N-(3-(5-methyl-1,2,4-oxadiazol-3-yl)-6,7-dihydro-5H-cyclopental[b]pyridin-7-yl)benzamide] was tested, and the “CDMF75 IC15” value was 7.2 µM and the IC50 was 31.6 µM.
`Cc1nc(-c2ccc3c(c2)CCC3NC(=O)c2ccnc(O)c2)no1` (stereo not drawn) [Compound 43, 2-hydroxy-N-(5-(5-methyl-1,2,4-oxadiazol-3-yl)-2,3-dihydro-1H-inden-1-yl)isonicotinamide] was tested, and the “CDMF75 IC15” value was 4.3 µM and the IC50 was 14.1 µM.
With `Cc1nc(-c2ccc3c(c2)CCC3NC(=O)c2cnn(C)n2)no1` (stereo not drawn) [Compound 44, 2-methyl-N-(5-(5-methyl-1,2,4-oxadiazol-3-yl)-2,3-dihydro-1H-inden-1-yl)-2H-1,2,3-triazole-4-carboxamide] the “CDMF75 IC15” value was 3.3 µM and the IC50 was 12.3 µM.
For `Cc1nc(-c2ccc3c(c2)CCC3NC(=O)c2cnc(C)n2C)no1` (stereo not drawn) [Compound 45, 1,2-dimethyl-N-(5-(5-methyl-1,2,4-oxadiazol-3-yl)-2,3-dihydro-1H-inden-1-yl)-1H-imidazole-5-carboxamide], the “CDMF75 IC15” value was 2.1 µM and the IC50 was 7.6 µM.
With `Cc1nc(-c2ccc3c(c2)CCC3NC(=O)c2cnoc2C)no1` (stereo not drawn) [Compound 46, 5-methyl-N-(5-(5-methyl-1,2,4-oxadiazol-3-yl)-2,3-dihydro-1H-inden-1-yl)isoxazole-4-carboxamide] the “CDMF75 IC15” value was 1.2 µM and the IC50 was 4.2 µM.
For `Cc1cc(C(=O)NC2CCc3cc(-c4noc(C)n4)ccc32)n(C)n1` (stereo not drawn) [Compound 47, 1,3-dimethyl-N-(5-(5-methyl-1,2,4-oxadiazol-3-yl)-2,3-dihydro-1H-inden-1-yl)-1H-pyrazole-5-carboxamide], the “CDMF75 IC15” value was 1.4 µM and the IC50 was 5 µM.
For `Cc1nc(-c2ccc3c(c2)CC[C@H]3NC(=O)c2cnc(C)o2)no1` [Compound 48, (R)-2-methyl-N-(5-(5-methyl-1,2,4-oxadiazol-3-yl)-2,3-dihydro-1H-inden-1-yl)oxazole-5-carboxamide], the “CDMF75 IC15” value was 1.4 µM and the IC50 was 4.9 µM.
With `O=C(NC1CCc2cc(-c3noc(C(F)F)n3)ccc21)c1ccn[nH]1` (stereo not drawn) [Compound 49, N-(5-(5-(difluoromethyl)-1,2,4-oxadiazol-3-yl)-2,3-dihydro-1H-inden-1-yl)-1H-pyrazole-5-carboxamide] the “CDMF75 IC15” value was 9.8 µM and the IC50 was over 39.2 µM.
In the case of `O=C(NC1CCc2cc(-c3noc(C(F)F)n3)ccc21)c1cn[nH]c1` (stereo not drawn) [Compound 50, N-(5-(5-(difluoromethyl)-1,2,4-oxadiazol-3-yl)-2,3-dihydro-1H-inden-1-yl)-1H-pyrazole-4-carboxamide], the “CDMF75 IC15” value is reported as 1.5 µM and the IC50 is reported as 5.2 µM.
With `Cc1nc(-c2ccc3c(c2)CCC3NC(=O)c2ocnc2C)no1` (stereo not drawn) [Compound 51, 4-methyl-N-(5-(5-methyl-1,2,4-oxadiazol-3-yl)-2,3-dihydro-1H-inden-1-yl)oxazole-5-carboxamide] the “CDMF75 IC15” value was 1.2 µM and the IC50 was 3.6 µM.
For `Cc1nc(-c2ccc3c(c2)CCC3NC(=O)c2ocnc2C2CC2)no1` (stereo not drawn) [Compound 52, 4-cyclopropyl-N-(5-(5-methyl-1,2,4-oxadiazol-3-yl)-2,3-dihydro-1H-inden-1-yl)oxazole-5-carboxamide], the “CDMF75 IC15” value was 1.6 µM and the IC50 was 4.9 µM.
`Cc1nc(-c2ccc3c(c2)CCC3NC(=O)c2oc(C)nc2C)no1` (stereo not drawn) [Compound 53, 2,4-dimethyl-N-(5-(5-methyl-1,2,4-oxadiazol-3-yl)-2,3-dihydro-1H-inden-1-yl)oxazole-5-carboxamide] was tested, and the “CDMF75 IC15” value was 2.5 µM and the IC50 was 8.8 µM.
With `Cc1nc(-c2ccc3c(c2)CCC3NC(=O)c2cnn(C)c2C)no1` (stereo not drawn) [Compound 54, 1,5-dimethyl-N-(5-(5-methyl-1,2,4-oxadiazol-3-yl)-2,3-dihydro-1H-inden-1-yl)-1H-pyrazole-4-carboxamide] the “CDMF75 IC15” value was 2.2 µM and the IC50 was 7.8 µM.
In the case of `Cc1nc(-c2ccc3c(c2)CCC3NC(=O)c2cn(C)nc2C)no1` (stereo not drawn) [Compound 55, 1,3-dimethyl-N-(5-(5-methyl-1,2,4-oxadiazol-3-yl)-2,3-dihydro-1H-inden-1-yl)-1H-pyrazole-4-carboxamide], the “CDMF75 IC15” value is reported as 2.0 µM and the IC50 is reported as 6.8 µM.
`CCn1nccc1C(=O)NC1CCc2cc(-c3noc(C)n3)ccc21` (stereo not drawn) [Compound 56, 1-ethyl-N-(5-(5-methyl-1,2,4-oxadiazol-3-yl)-2,3-dihydro-1H-inden-1-yl)-1H-pyrazole-5-carboxamide] was tested, and the “CDMF75 IC15” value was 2.5 µM and the IC50 was 8.5 µM.
With `Cc1nc(-c2ccc3c(c2)CCC3NC(=O)c2cnn3c2CCC3)no1` (stereo not drawn) [Compound 57, N-(5-(5-methyl-1,2,4-oxadiazol-3-yl)-2,3-dihydro-1H-inden-1-yl)-5,6-dihydro-4H-pyrrolo[1,2-b]pyrazole-3-carboxamide] the “CDMF75 IC15” value was 2.8 µM and the IC50 was 8.9 µM.
In the case of `Cc1cccnc1C(=O)NC1CCc2cc(-c3noc(C(F)F)n3)ccc21` (stereo not drawn) [Compound 58, N-(5-(5-(difluoromethyl)-1,2,4-oxadiazol-3-yl)-2,3-dihydro-1H-inden-1-yl)-3-methylpicolinamide], the “CDMF75 IC15” value is reported as 4.8 µM and the IC50 is reported as 21 µM.
`Cc1nc(-c2ccc3c(c2)CCC3NC(=O)c2ncccc2C)no1` (stereo not drawn) [Compound 59, 3-methyl-N-(5-(5-methyl-1,2,4-oxadiazol-3-yl)-2,3-dihydro-1H-inden-1-yl)picolinamide] was tested, and the “CDMF75 IC15” value was 5.7 µM and the IC50 was 28.2 µM.
`Cc1csc(C(=O)NC2CCc3cc(-c4noc(C(F)F)n4)ccc32)n1` (stereo not drawn) [Compound 60, N-(5-(5-(difluoromethyl)-1,2,4-oxadiazol-3-yl)-2,3-dihydro-1H-inden-1-yl)-4-methylthiazole-2-carboxamide] was tested, and the “CDMF75 IC15” value was 2.3 µM and the IC50 was 8.3 µM.
In the case of `Cc1ncc(C(=O)NC2CCc3cc(-c4noc(C(F)F)n4)ccc32)n1C` (stereo not drawn) [Compound 61, N-(5-(5-(difluoromethyl)-1,2,4-oxadiazol-3-yl)-2,3-dihydro-1H-inden-1-yl)-1,2-dimethyl-1H-imidazole-5-carboxamide], the “CDMF75 IC15” value is reported as 1.1 µM and the IC50 is reported as 3.5 µM.
In the case of `Cc1nc(-c2ccc3c(c2)CCC3NC(=O)Nc2cccnc2)no1` (stereo not drawn) [Compound 62, 1-(5-(5-methyl-1,2,4-oxadiazol-3-yl)-2,3-dihydro-1H-inden-1-yl)-3-(pyridin-3-yl)urea], the “CDMF75 IC15” value is reported as 1.5 µM and the IC50 is reported as 8.7 µM.
